Laboratory results reported in US9757324B2, “Emu oil in combination with other active ingredients for treating skin imperfections” (priority 2011, dated 2017).

Assay: Histological examination of skin after topical application
Type: in vivo, volunteers
Description: A study conducted with Emu Oil and doxycycline was undertaken in volunteers with mild to moderate acne. Sixteen volunteers participated who had mild to moderate acne, and one had severe cystic acne. Within 48 hours of application of the combination, the acne had disappeared. Only the volunteer with severe cystic acne had to apply the combination for five days for the acne to resolve. The efficacy was 100%. […] There are no tropical formulations of doxycycline to compare with. On histological examination, doxycycline was found in the dermis within 15 minutes of topical application.

C[C@H]1c2cccc(O)c2C(=O)C2=C(O)[C@]3(O)C(=O)C(C(N)=O)=C(O)[C@@H](N(C)C)[C@@H]3[C@@H](O)[C@@H]21 [doxycycline]
time after which doxycycline was found in the dermis: ≤ 15 min
